# Assay results published in patent US8835466B2, “Synthesis and uses of pyroglutamic acid derivatives” (Prodimed, S.A., priority 2006, dated 2014).
# System: KLN 205 cells (lung cell carcinoma)
# Experiment: Effect of 9d and Cisplatin on KLN 205 tumour growth after subcutaneous, intradermal or intramuscular inoculation (Example 12)
# Format: in vivo, DBA/2 mice
# Description: This was carried out by measuring two perpendicular diameters (d1/d2) with a calliper. These measures were used to obtain both tumour surface and volume: […] Results were expressed as single values and/or as the mean±SD or median from each experimental group. This assay was made in order to check the effect on in vivo tumour growth in mice challenged with KLN 205 cells. Tumours where established by subcutaneous, intradermal or intramuscular inoculation. The effect of the combination of cisplatin and/or Isomer (9d) was compared with placebo in mice challenged intradermally. […] KLN 205 is a lung cell carcinoma originated in DBA/2 mouse strain, and therefore syngeneic in mice with DBA/2 genetic background (Kaneko T and […]. Growth characteristics and drug responses of a murine lung carcinoma in vitro and in vivo. Cancer Research. 38: 2084-2090; 1978). KLN 205 cells (CLS, Eppelheim, Germany) were maintained in vitro by serial passages every 3-4 days. […] Louis, Mo., USA) by seeding 5×10^6 cells onto 75 cm^2 culture flasks. Subcultures were carried out by collecting detached cells after treatment with trypsin-EDTA (Sigma, St. Louis, Mo., USA). Tumour cells, collected from 48 hour cultures, were used as source of KLN 205 cells for the studies described below. […] Tumours were established by subcutaneous and intradermal inoculation in the right hind flank, and intramuscular in the right hind leg. Mice (DBA/2) were inoculated with 0.05 mL containing 2×10^5 viable KLN 205 cells. The day of subcutaneous, intradermal and intramuscular inoculation will be considered Day 0 of the test. A case-control study was performed with treated and control mice in order to determine whether differences between placebo, 9d, Cisplatin or 9d+Cisplatin were present. The data obtained (tumour surface and volume) were tested for Normal distribution within the groups (Kolmogorov Smirnov test p<0.05). […] The U-test of Mann Withney was chosen for being one of the better known non-parametrical tests, anyway, results for this test are equivalent both to those of Wilcoxon's sum of ranges and Kruskal-Wallis two-groups test.
# [1] = Group A2 (9d 250 ng/mouse), day 0 after tumour inoculation
# [2] = Group A2 (9d 250 ng/mouse), day 10 after tumour inoculation
# [3] = Group A2 (9d 250 ng/mouse), day 13 after tumour inoculation
# [4] = Group A2 (9d 250 ng/mouse), day 17 after tumour inoculation
# [5] = Group A2 (9d 250 ng/mouse), day 20 after tumour inoculation
# [6] = Group A2 (9d 250 ng/mouse), day 24 after tumour inoculation
# [7] = Group A2 (9d 250 ng/mouse), day 27 after tumour inoculation
# [8] = Group A2 (9d 250 ng/mouse), day 31 after tumour inoculation
# [9] = Group C2 (9d 250 ng/mouse), day 0 after tumour inoculation
# [10] = Group C2 (9d 250 ng/mouse), day 10 after tumour inoculation
# [11] = Group C2 (9d 250 ng/mouse), day 13 after tumour inoculation
# [12] = Group C2 (9d 250 ng/mouse), day 17 after tumour inoculation
# [13] = Group C2 (9d 250 ng/mouse), day 20 after tumour inoculation
# [14] = Group C2 (9d 250 ng/mouse), day 24 after tumour inoculation
# [15] = Group C2 (9d 250 ng/mouse), day 27 after tumour inoculation
# [16] = Group C2 (9d 250 ng/mouse), day 31 after tumour inoculation
# [17] = Group C2 (9d 250 ng/mouse), day 34 after tumour inoculation
# [18] = Group C2 (9d 250 ng/mouse), day 38 after tumour inoculation
# [19] = Groups B2-B4 (9d 250 ng, Cisplatin 65 μg, or both), day 0 after tumour inoculation
# [20] = Groups B2-B4 (9d 250 ng, Cisplatin 65 μg, or both), day 10 after tumour inoculation
# [21] = Groups B2-B4 (9d 250 ng, Cisplatin 65 μg, or both), day 13 after tumour inoculation
# [22] = Groups B2-B4 (9d 250 ng, Cisplatin 65 μg, or both), day 17 after tumour inoculation
# [23] = Groups B2-B4 (9d 250 ng, Cisplatin 65 μg, or both), day 20 after tumour inoculation
# [24] = Groups B2-B4 (9d 250 ng, Cisplatin 65 μg, or both), day 24 after tumour inoculation
# [25] = Groups B2-B4 (9d 250 ng, Cisplatin 65 μg, or both), day 27 after tumour inoculation
# [26] = Groups B2-B4 (9d 250 ng, Cisplatin 65 μg, or both), day 31 after tumour inoculation
smiles,measurement,setting,value
"Br.N[C@]1(C[n+]2ccccc2)C[C@H](C(=O)O)NC1=O.[Br-] (single isomer, unassigned; isomer 4) [isomer 4, 3S,5R-1-(3-Amino-5-carboxy-2-oxopyrrolidin-3-ylmethyl)pyridinium bromide hidrobromide]",SURFACE Overall values (Mean),[1],0 mm^2
same,SURFACE Overall values (Median),[1],0 mm^2
same,VOLUME Overall values (Mean),[1],0 mm^3
same,VOLUME Overall values (Median),[1],0 mm^3
same,SURFACE Overall values (Mean),[2],11.4 mm^2
same,SURFACE Overall values (Median),[2],12.5 mm^2
same,VOLUME Overall values (Mean),[2],22 mm^3
same,VOLUME Overall values (Median),[2],22.75 mm^3
same,SURFACE Overall values (Mean),[3],27.4 mm^2
same,SURFACE Overall values (Median),[3],30 mm^2
same,VOLUME Overall values (Mean),[3],75.5 mm^3
same,VOLUME Overall values (Median),[3],75 mm^3
same,SURFACE Overall values (Mean),[4],49 mm^2
same,SURFACE Overall values (Median),[4],45 mm^2
same,VOLUME Overall values (Mean),[4],171.6 mm^3
same,VOLUME Overall values (Median),[4],135 mm^3
same,SURFACE Overall values (Mean),[5],74.4 mm^2
same,SURFACE Overall values (Median),[5],70 mm^2
same,VOLUME Overall values (Mean),[5],304.2 mm^3
same,VOLUME Overall values (Median),[5],245 mm^3
same,SURFACE Overall values (Mean),[6],117.4 mm^2
same,SURFACE Overall values (Median),[6],118.5 mm^2
same,VOLUME Overall values (Mean),[6],554.9 mm^3
same,VOLUME Overall values (Median),[6],506.25 mm^3
same,SURFACE Overall values (Mean),[7],149.3 mm^2
same,SURFACE Overall values (Median),[7],159 mm^2
same,VOLUME Overall values (Mean),[7],765.05 mm^3
same,VOLUME Overall values (Median),[7],800 mm^3
same,SURFACE Overall values (Mean),[8],179.2 mm^2
same,SURFACE Overall values (Median),[8],186 mm^2
same,VOLUME Overall values (Mean),[8],1020 mm^3
same,VOLUME Overall values (Median),[8],1058.75 mm^3
same,SURFACE Overall values (Mean),[9],0 mm^2
same,SURFACE Overall values (Median),[9],0 mm^2
same,SURFACE Overall values (Mean),[10],0.06 mm^2
same,SURFACE Overall values (Median),[10],0.03 mm^2
same,SURFACE Overall values (Mean),[11],0.18 mm^2
same,SURFACE Overall values (Median),[11],0.17 mm^2
same,SURFACE Overall values (Mean),[12],0.37 mm^2
same,SURFACE Overall values (Median),[12],0.315 mm^2
same,SURFACE Overall values (Mean),[13],0.89 mm^2
same,SURFACE Overall values (Median),[13],0.93 mm^2
same,SURFACE Overall values (Mean),[14],2.48 mm^2
same,SURFACE Overall values (Median),[14],1.83 mm^2
same,SURFACE Overall values (Mean),[15],6.7 mm^2
same,SURFACE Overall values (Median),[15],6.94 mm^2
same,SURFACE Overall values (Mean),[16],13.61 mm^2
same,SURFACE Overall values (Median),[16],12.26 mm^2
same,SURFACE Overall values (Mean),[17],29.17 mm^2
same,SURFACE Overall values (Median),[17],24.34 mm^2
same,SURFACE Overall values (Mean),[18],41.53 mm^2
same,SURFACE Overall values (Median),[18],37.56 mm^2
same,SURFACE Overall values (Mean),[19],0 mm^2
same,SURFACE Overall values (Median),[19],0 mm^2
same,VOLUME Overall values (Mean),[19],0 mm^3
same,VOLUME Overall values (Median),[19],0 mm^3
same,SURFACE Overall values (Mean),[20],14.3 mm^2
same,SURFACE Overall values (Median),[20],12.5 mm^2
same,VOLUME Overall values (Mean),[20],28.85 mm^3
same,VOLUME Overall values (Median),[20],22.75 mm^3
same,SURFACE Overall values (Mean),[21],27.9 mm^2
same,SURFACE Overall values (Median),[21],25 mm^2
same,VOLUME Overall values (Mean),[21],74.95 mm^3
same,VOLUME Overall values (Median),[21],62.5 mm^3
same,SURFACE Overall values (Mean),[22],46.3 mm^2
same,SURFACE Overall values (Median),[22],42 mm^2
same,VOLUME Overall values (Mean),[22],150.05 mm^3
same,VOLUME Overall values (Median),[22],126 mm^3
same,SURFACE Overall values (Mean),[23],71.2 mm^2
same,SURFACE Overall values (Median),[23],63.5 mm^2
same,VOLUME Overall values (Mean),[23],280.6 mm^3
same,VOLUME Overall values (Median),[23],232.75 mm^3
same,SURFACE Overall values (Mean),[24],107.8 mm^2
same,SURFACE Overall values (Median),[24],95 mm^2
same,VOLUME Overall values (Mean),[24],496.8 mm^3
same,VOLUME Overall values (Median),[24],425.25 mm^3
same,SURFACE Overall values (Mean),[25],141.7 mm^2
same,SURFACE Overall values (Median),[25],128 mm^2
same,VOLUME Overall values (Mean),[25],744.75 mm^3
same,VOLUME Overall values (Median),[25],608.5 mm^3
same,SURFACE Overall values (Mean),[26],177.1 mm^2
same,SURFACE Overall values (Median),[26],162.5 mm^2
same,VOLUME Overall values (Mean),[26],1029.35 mm^3
same,VOLUME Overall values (Median),[26],885.75 mm^3
same,"Differences in intradermal KLN 205 tumour growth rate vs. placebo, in words","intradermal inoculation, Mann-Whitney U test",not differences
same,"Intradermal KLN 205 tumour growth vs. placebo, tendency in words","intradermal inoculation, surface or volume, all days scored after day 17th",significant tendency
same,"Differences in intramuscular KLN 205 tumour growth rate vs. placebo, in words","intramuscular inoculation, Mann-Whitney U test",not differences
same,"Inhibition of the in vivo growth of subcutaneous KLN 205 cells, in words",subcutaneous inoculation,inhibit the in vivo growth
same,"Differences in subcutaneous KLN 205 tumour growth rate vs. placebo, statistical significance p (Mann-Whitney U test)","subcutaneous inoculation, surface or volume, all days scored after the day 20th",< 0.05
"N.N.[Cl][Pt][Cl] [Cisplatin, reference compound]",SURFACE Overall values (Mean),[19],0 mm^2
same,SURFACE Overall values (Median),[19],0 mm^2
same,VOLUME Overall values (Mean),[19],0 mm^3
same,VOLUME Overall values (Median),[19],0 mm^3
same,SURFACE Overall values (Mean),[20],7.3 mm^2
same,SURFACE Overall values (Median),[20],6.5 mm^2
same,VOLUME Overall values (Mean),[20],11.05 mm^3
same,VOLUME Overall values (Median),[20],8.75 mm^3
same,SURFACE Overall values (Mean),[21],20 mm^2
same,SURFACE Overall values (Median),[21],20 mm^2
same,VOLUME Overall values (Mean),[21],43.6 mm^3
same,VOLUME Overall values (Median),[21],40 mm^3
same,SURFACE Overall values (Mean),[22],38.3 mm^2
same,SURFACE Overall values (Median),[22],33 mm^2
same,VOLUME Overall values (Mean),[22],115.95 mm^3
same,VOLUME Overall values (Median),[22],91.5 mm^3
same,SURFACE Overall values (Mean),[23],62.2 mm^2
same,SURFACE Overall values (Median),[23],56 mm^2
same,VOLUME Overall values (Mean),[23],233.5 mm^3
same,VOLUME Overall values (Median),[23],196 mm^3
same,SURFACE Overall values (Mean),[24],93.7 mm^2
same,SURFACE Overall values (Median),[24],96 mm^2
same,VOLUME Overall values (Mean),[24],408.05 mm^3
same,VOLUME Overall values (Median),[24],384 mm^3
same,SURFACE Overall values (Mean),[25],124.1 mm^2
same,SURFACE Overall values (Median),[25],129 mm^2
same,VOLUME Overall values (Mean),[25],642.55 mm^3
same,VOLUME Overall values (Median),[25],646.5 mm^3
same,SURFACE Overall values (Mean),[26],151.3 mm^2
same,SURFACE Overall values (Median),[26],155 mm^2
same,VOLUME Overall values (Mean),[26],848.95 mm^3
same,VOLUME Overall values (Median),[26],775 mm^3
same,"Inhibition of the in vivo growth of intradermal KLN 205 cells, in words",intradermal inoculation,inhibit the in vivo growth
same,"Differences in intradermal KLN 205 tumour growth rate vs. placebo, statistical significance p (Mann-Whitney U test)","intradermal inoculation, surface or volume, days 17th, 20th and 31th",< 0.05
